Measured values: article PMC7774954, “Interactomic affinity profiling by holdup assay: Acetylation and distal residues impact the PDZome-binding specificity of PTEN phosphatase” (PLoS ONE, 2020)
*1 amine or outer side, *2 acyl side, *3 side chain or, on linkers, in order; H or OH if unused. Where a SMILES comes first, the peptide text is derived from it. The star is where a group is joined. X1 = O=C(CCCC[C@@H]1SC[C@@H]2NC(=O)N[C@@H]21)NCCCOCCOCCOCCCN*; Suc = O=C(CCC(=O)[*:2])[*:1]

System: 266 human PDZ domains (PDZome)
Assay: Holdup assay (chromatographic retention, PDZome-binding profile, BI)
Design: key to maximal BI / Max BI / BI: binding intensity: 0.00 = no binding, 1.00 = maximal binding; Log(Kd): unit not given here
Experimental: The holdup method is a chromatographic approach in solution developed in our group that allows to measure the binding strength of a peptide, attached to a resin, against a library of domains of a same family. We initially proposed this method to explore the interaction between PBM peptides and the human PDZ domains. Briefly, a soluble cell lysate containing individually overexpressed PDZ domain is incubated until equilibrium with a calibrated amount of streptavidin-resin saturated either with the target biotinylated PBM peptide or with biotin as a reference. The flow-throughs containing the unbound protein fraction are recovered by filtration and loaded on a capillary electrophoresis instrument to quantify the amount of remaining free PDZ. The stronger the steady-state depletion of the PDZ domain in the flow-through as compared to the reference, the stronger the PDZ/PBM binding interaction. The assay is particularly suited to quantitatively evaluate and compare large numbers of interactions. This method delivers, for each PBM/PDZ pair, a "binding intensity" (BI), whose value can in principle range from 0.00 (no binding event detected) to 1.00 (maximal binding event). The approach has been automated and the human PDZ library was recently extended to the complete 266 PDZ domains known in human proteome. […] The high accuracy and efficiency of the holdup assay have been validated previously. Very recently, a manual version of the holdup assay with purified samples and using widespread benchtop equipment has been implemented and has proven to be reliable.
The 266 PDZ domains that constitute the PDZ library (“PDZome V.2”) used in the present work were produced using constructs with optimized boundaries as described previously. All the genes were fused to Maltose-Binding Protein (MBP) or Thioredoxin (THR) tag often used to facilitate the solubilisation of the over-expressed protein, by cloning them into the pETG41A or pETG20A plasmid, respectively. […] The expressed tag-PDZ concentrations were quantified using capillary gel electrophoresis and cell lysates were diluted to reach approximately 5 μM tag-PDZ before freezing in 96-well plates. A detailed protocol of the PDZ library production, expression and benchmarking can be found in [32]. PDZ domains are named according to their originating protein name followed by the PDZ number (e.g. NHERF1-1 as the first PDZ domain of the NHERF1 protein).
The holdup assay was performed on a Tecan freedom Evo200 robot with 384-well plates in singlicate for the three 11-mer PTEN variants and the 13-mer PTEN peptide as described in [31, 32]. Briefly, prior to interaction assay, 2.5 μL of streptavidin resin was saturated in each well with 20 μL of biotinylated PBM peptides (42 μM) and then washed twice with an excess of free biotin, while the reference resin was incubated only with biotin. Right before the holdup experiment, the PDZ library was spiked with an internal standard of lysozyme. Then, the biotin- or PBM-saturated resin was incubated, each in a distinct well of a 384-well plate, with complete cell lysates diluted so that the concentration of the tag-PDZ present in the crude extract is adjusted at 4 μM. After a sufficient time to reach complex equilibrium (15 min.), a fast and mild filtration step is performed and the tag-PDZ concentrations were measured by capillary electrophoresis instrument (LabChip GXII, PerkinElmer, Massachusets, USA). Standard markers were used to convert migration time into molecular weight on the LabChip software and inappropriate molecular weight markers were corrected or excluded.
Holdup data quality check and processing […]

[1] = PDZ domain PARD3-1, first of two lines so named (r186)

CC[C@H](C)[C@H](NC(=O)[C@H](CCC(N)=O)NC(=O)[C@@H](NC(=O)[C@H](Cc1c[nH]cn1)NC(=O)[C@H](CCC(N)=O)NC(=O)[C@H](CC(=O)O)NC(=O)[C@H](CCC(=O)O)NC(=O)[C@H](CC(=O)O)NC(=O)CCC(=O)NCCCOCCOCCOCCCNC(=O)CCCC[C@@H]1SC[C@@H]2NC(=O)N[C@@H]21)[C@@H](C)O)C(=O)N[C@H](C(=O)N[C@@H](CCCNC(=N)N)C(=O)N[C@H](C(=O)O)C(C)C)[C@@H](C)O [PTEN_KR] ({X1-Suc}-DEDQHTQITRV-OH)
number of additional new PDZ partners not detected for PTEN_11 (BI>0.20, compared with PTEN_11): ≥ 11 | BI (PDZ domain MPDZ-2): 0.021 | BI (PDZ domain MPDZ-3): 0.034 | BI (PDZ domain MPDZ-4): -0.021 | BI (PDZ domain MPDZ-5): 0.058 | BI (PDZ domain MPDZ-6): 0.033 | BI (PDZ domain MPDZ-7): 0.267 | BI (PDZ domain MPDZ-8): 0.128 | BI (PDZ domain MPDZ-13): 0.454 | BI (PDZ domain MPP1-1): -0.046 | BI (PDZ domain MPP2-1): -0.03 | BI (PDZ domain MPP3-1): -0.023 | BI (PDZ domain MPP4-1): 0.067 | BI (PDZ domain MPP5-1): -0.045 | BI (PDZ domain MPP6-1): -0.058 | BI (PDZ domain MPP7-1): -0.023 | BI (PDZ domain NHERF1-2): 0.063 | BI (PDZ domain NHERF3-2): 0.002 | BI (PDZ domain NHERF3-3): 0.185 | BI (PDZ domain NHERF4-1): 0.041 | BI (PDZ domain NHERF4-2): -0.071 | BI (PDZ domain NHERF4-3): -0.035 | BI (PDZ domain NHERF4-4): 0.01 | BI (PDZ domain NOS1-1): 0.039 | BI [1]: 0.3 | Log(Kd) [1]: 4.255 | BI (PDZ domain PARD3-1, second of two lines so named (r187)): -0.046 | BI (PDZ domain PARD3B-1): -0.02 | BI (PDZ domain PARD3B-2): -0.019 | BI (PDZ domain PARD3B-3): -0.035 | BI (PDZ domain PARD6G-1): -0.023 | BI (PDZ domain PDLIM1-1): -0.2 | BI (PDZ domain PDLIM2-1): 0.034 | BI (PDZ domain PDLIM3-1): -0.065 | BI (PDZ domain PDLIM4-1): -0.087 | BI (PDZ domain PDLIM5-1): 0.086 | BI (PDZ domain PDLIM7-1): -0.042 | BI (PDZ domain PDZD2-1): -0.056 | BI (PDZ domain PDZD2-3): -0.096 | BI (PDZ domain PDZD2-4): -0.092 | BI (PDZ domain PDZD2-5): -0.089 | BI (PDZ domain PDZD2-6): 0.089 | BI (PDZ domain PDZD4-1): 0.031 | BI (PDZ domain PDZD7-1): -0.024 | BI (PDZ domain PDZD7-2): -0.039 | BI (PDZ domain PDZD7-3): 0.756 | BI (PDZ domain PDZD8-1): 0.006 | BI (PDZ domain PDZD11-1): -0.048 | BI (PDZ domain PDZRN4-1): 0.048 | BI (PDZ domain PDZRN4-2): -0.071 | BI (PDZ domain PPP1R9A-1): 0.012 | BI (PDZ domain PPP1R9B-1): 0.038 | BI (PDZ domain PREX2-2): -0.004 | BI (PDZ domain PRX-1): 0.025 | BI (PDZ domain PSMD9-1): -0.039 | BI (PDZ domain PTPN3-1): 0.12 | BI (PDZ domain PTPN4-1): -0.038 | BI (PDZ domain PTPN13-1): -0.017 | BI (PDZ domain PTPN13-5): 0.096 | BI (PDZ domain RAPGEF2-1): -0.11 | BI (PDZ domain RHPN2-1): -0.087 | BI (PDZ domain RIMS1-1): 0.013 | BI (PDZ domain SCRIB-1): 0.042 | BI (PDZ domain SCRIB-2): 0.147 | BI (PDZ domain SCRIB-4): 0.039 | BI (PDZ domain SDCBP-2): -0.067 | BI (PDZ domain SHANK1-1): 0.547 | BI (PDZ domain SHANK3-1): 0.554 | BI (PDZ domain SHROOM2-1): 0.058 | BI (PDZ domain SHROOM3-1): 0.042 | BI (PDZ domain SHROOM4-1): -0.148 | BI (PDZ domain SIPA1L2-1): 0.064 | BI (PDZ domain SIPA1L3-1): -0.006 | BI (PDZ domain SNTA1-1): 0.395 | BI (PDZ domain SNTB1-1): 0.503 | BI (PDZ domain SNTG1-1): 0.076 | BI (PDZ domain SNTG2-1): 0.383 | BI (PDZ domain STXB4-1): -0.075 | BI (PDZ domain SYNJ2BP-1): -0.026 | BI (PDZ domain SYNP2-1): -0.044 | BI (PDZ domain SYNPO2L-1): -0.021 | BI (PDZ domain TIAM2-1): 0.037 | BI (PDZ domain TJP1-2): -0.006 | BI (PDZ domain TJP1-3): 0.099 | BI (PDZ domain TJP2-1): 0.086 | BI (PDZ domain TJP2-2): -0.005 | BI (PDZ domain TJP2-3): -0.025 | BI (PDZ domain TJP3-2): 0.112 | BI (PDZ domain TJP3-3): 0.12 | BI (PDZ domain TX1B3-1): -0.019 | BI (PDZ domain USH1C-1): -0.098 | BI (PDZ domain USH1C-2): -0.039 | BI (PDZ domain USH1C-3): -0.061 | number of PDZ domains identified as potential binders (BI>0.20) (holdup, singlicate, threshold BI>0.20): 37 PDZ domains | maximal BI (holdup, singlicate, highest BI in the PDZome profile, BI standard error ~0.07): 0.86 | binding of several PDZ domains (in words) (including several ones from MAGI and NHERF): detectably bound | Max BI (maximum over PDZome): 0.86 | number of partners detected for PTEN_KR and not for PTEN_Ac (over a total of 37): 8
